Tested on: cockroaches (Blattella germanica)
Assay: Weeklong surface area toxicity test on cockroaches (Example 19)
Format: in vivo
Settings: for cockroaches alive (of five): 0-1 days; for cockroaches alive (of five per cup): 3-4 days treatment
Experimental: In order determine the toxicity of the formulation to the insect after application to a surface over a period of time, the following test was performed. […] Cockroaches were placed in the cups on the first day following the application of the formulations, on the third day following the application of the formulations, and on the sixth day following the application of the formulations in order to monitor the toxicity of the formulations after a period of time had elapsed. The mortality of the cockroaches was then recorded at the time intervals noted. The five cockroaches placed in each cup were one week old cockroaches (Blattella germanica) which had been reared at twenty seven degrees centigrade, at sixty five percent relative humidity, and on a twelve hour light to dark photoperiod. Each of the cups had Fluon®AD1 treated sides to prevent the escape of the cockroaches.

CCCCCCCCCC(C)=O [Undecanone, 2-Undecanone]
cockroaches alive (of five) (0.02 μL/cm^2 (1 μL), 5 min): 5
cockroaches alive (of five) (0.02 μL/cm^2 (1 μL), 10 min): 5
cockroaches alive (of five) (0.02 μL/cm^2 (1 μL), 15 min): 5
cockroaches alive (of five) (0.02 μL/cm^2 (1 μL), 30 min): 5
cockroaches alive (of five) (0.02 μL/cm^2 (1 μL), 60 min): 5
cockroaches alive (of five) (0.02 μL/cm^2 (1 μL), 90 min): 5
cockroaches alive (of five) (0.02 μL/cm^2 (1 μL), 2 h): 5
cockroaches alive (of five) (0.02 μL/cm^2 (1 μL), 4 h): 5
cockroaches alive (of five) (0.02 μL/cm^2 (1 μL), 17.5 h): 5
cockroaches alive (of five) (0.02 μL/cm^2 (1 μL), 18 h): 5
cockroaches alive (of five) (0.02 μL/cm^2 (1 μL), 21 h): 5
cockroaches alive (of five) (0.02 μL/cm^2 (1 μL), 24 h): 5
cockroaches alive (of five) (0.02 μL/cm^2 (1 μL), 27.5 h): 5
cockroaches alive (of five) (0.02 μL/cm^2 (1 μL), 29 h): 5
cockroaches alive (of five) (0.02 μL/cm^2 (1 μL), 30 h): 5
cockroaches alive (of five) (0.09 μL/cm^2 (5 μL), 5 min): 5
cockroaches alive (of five) (0.09 μL/cm^2 (5 μL), 10 min): 5
cockroaches alive (of five) (0.09 μL/cm^2 (5 μL), 15 min): 4
cockroaches alive (of five) (0.09 μL/cm^2 (5 μL), 30 min): 4
cockroaches alive (of five) (0.09 μL/cm^2 (5 μL), 60 min): 4
cockroaches alive (of five) (0.09 μL/cm^2 (5 μL), 90 min): 4
cockroaches alive (of five) (0.09 μL/cm^2 (5 μL), 2 h): 4
cockroaches alive (of five) (0.09 μL/cm^2 (5 μL), 4 h): 4
cockroaches alive (of five) (0.09 μL/cm^2 (5 μL), 17.5 h): 4
cockroaches alive (of five) (0.09 μL/cm^2 (5 μL), 18 h): 4
cockroaches alive (of five) (0.09 μL/cm^2 (5 μL), 21 h): 4
cockroaches alive (of five) (0.09 μL/cm^2 (5 μL), 24 h): 4
cockroaches alive (of five) (0.09 μL/cm^2 (5 μL), 27.5 h): 3
cockroaches alive (of five) (0.09 μL/cm^2 (5 μL), 29 h): 3
cockroaches alive (of five) (0.09 μL/cm^2 (5 μL), 30 h): 3
cockroaches alive (of five) (0.19 μL/cm^2 (10 μL), 5 min): 5
cockroaches alive (of five) (0.19 μL/cm^2 (10 μL), 10 min): 5
cockroaches alive (of five) (0.19 μL/cm^2 (10 μL), 15 min): 5
cockroaches alive (of five) (0.19 μL/cm^2 (10 μL), 30 min): 2
cockroaches alive (of five) (0.19 μL/cm^2 (10 μL), 60 min): 0
cockroaches alive (of five) (0.19 μL/cm^2 (10 μL), 90 min): 0
cockroaches alive (of five) (0.19 μL/cm^2 (10 μL), 2 h): 0
cockroaches alive (of five) (0.19 μL/cm^2 (10 μL), 4 h): 0
cockroaches alive (of five) (0.19 μL/cm^2 (10 μL), 17.5 h): 0
cockroaches alive (of five) (0.19 μL/cm^2 (10 μL), 18 h): 0
cockroaches alive (of five) (0.19 μL/cm^2 (10 μL), 21 h): 0
cockroaches alive (of five) (0.19 μL/cm^2 (10 μL), 24 h): 0
cockroaches alive (of five) (0.19 μL/cm^2 (10 μL), 27.5 h): 0
cockroaches alive (of five) (0.19 μL/cm^2 (10 μL), 29 h): 0
cockroaches alive (of five) (0.19 μL/cm^2 (10 μL), 30 h): 0
cockroaches alive (of five) (0.95 μL/cm^2 (50 μL), 5 min): 0
cockroaches alive (of five) (0.95 μL/cm^2 (50 μL), 10 min): 0
cockroaches alive (of five) (0.95 μL/cm^2 (50 μL), 15 min): 0
cockroaches alive (of five) (0.95 μL/cm^2 (50 μL), 30 min): 0
cockroaches alive (of five) (0.95 μL/cm^2 (50 μL), 60 min): 0
cockroaches alive (of five) (0.95 μL/cm^2 (50 μL), 90 min): 0
cockroaches alive (of five) (0.95 μL/cm^2 (50 μL), 2 h): 0
cockroaches alive (of five) (0.95 μL/cm^2 (50 μL), 4 h): 0
cockroaches alive (of five) (0.95 μL/cm^2 (50 μL), 17.5 h): 0
cockroaches alive (of five) (0.95 μL/cm^2 (50 μL), 18 h): 0
cockroaches alive (of five) (0.95 μL/cm^2 (50 μL), 21 h): 0
cockroaches alive (of five) (0.95 μL/cm^2 (50 μL), 24 h): 0
cockroaches alive (of five) (0.95 μL/cm^2 (50 μL), 27.5 h): 0
cockroaches alive (of five) (0.95 μL/cm^2 (50 μL), 29 h): 0
cockroaches alive (of five) (0.95 μL/cm^2 (50 μL), 30 h): 0
cockroaches alive (of five per cup) (0.02 μL/cm^2 (1 μL), 5 min): 5
cockroaches alive (of five per cup) (0.02 μL/cm^2 (1 μL), 10 min): 5
cockroaches alive (of five per cup) (0.02 μL/cm^2 (1 μL), 15 min): 5
cockroaches alive (of five per cup) (0.02 μL/cm^2 (1 μL), 30 min): 5
cockroaches alive (of five per cup) (0.02 μL/cm^2 (1 μL), 60 min): 5
cockroaches alive (of five per cup) (0.02 μL/cm^2 (1 μL), 90 min): 5
cockroaches alive (of five per cup) (0.02 μL/cm^2 (1 μL), 2 h): 5
cockroaches alive (of five per cup) (0.02 μL/cm^2 (1 μL), 4 h): 5
cockroaches alive (of five per cup) (0.02 μL/cm^2 (1 μL), 23 h): 5
cockroaches alive (of five per cup) (0.02 μL/cm^2 (1 μL), 24 h): 5
cockroaches alive (of five per cup) (0.02 μL/cm^2 (1 μL), 27 h): 5
cockroaches alive (of five per cup) (0.02 μL/cm^2 (1 μL), 30 h): 5
cockroaches alive (of five per cup) (0.09 μL/cm^2 (5 μL), 5 min): 5
cockroaches alive (of five per cup) (0.09 μL/cm^2 (5 μL), 10 min): 5
cockroaches alive (of five per cup) (0.09 μL/cm^2 (5 μL), 15 min): 5
cockroaches alive (of five per cup) (0.09 μL/cm^2 (5 μL), 30 min): 5
cockroaches alive (of five per cup) (0.09 μL/cm^2 (5 μL), 60 min): 5
cockroaches alive (of five per cup) (0.09 μL/cm^2 (5 μL), 90 min): 5
cockroaches alive (of five per cup) (0.09 μL/cm^2 (5 μL), 2 h): 5
cockroaches alive (of five per cup) (0.09 μL/cm^2 (5 μL), 4 h): 5
